Converted amounts (≈) assume the structure as drawn. “And” between values parts separate entries of the source, which are not always exact repeats. Identical values can stand only once. The source made the active and inactive calls. The rule behind the calls is not given here.
Columns and labels:
[1] = Acute toxicity in zebra fish embryos assessed as lethality measured every 24 hrs for 72 hrs; design: species or system Danio rerio; conditions: zebrafish
Beta-secretase 1 [2] = target: T1, Beta-secretase 1 (Homo sapiens, UniProt P56817); experiment: Inhibition of human recombinant BACE-1 expressed in Escherichia coli at 10 uM using panvera peptide as a substrate incubated for 1 hr by fluorescence analysis relative to control
T1 sequence (P56817 whole entry): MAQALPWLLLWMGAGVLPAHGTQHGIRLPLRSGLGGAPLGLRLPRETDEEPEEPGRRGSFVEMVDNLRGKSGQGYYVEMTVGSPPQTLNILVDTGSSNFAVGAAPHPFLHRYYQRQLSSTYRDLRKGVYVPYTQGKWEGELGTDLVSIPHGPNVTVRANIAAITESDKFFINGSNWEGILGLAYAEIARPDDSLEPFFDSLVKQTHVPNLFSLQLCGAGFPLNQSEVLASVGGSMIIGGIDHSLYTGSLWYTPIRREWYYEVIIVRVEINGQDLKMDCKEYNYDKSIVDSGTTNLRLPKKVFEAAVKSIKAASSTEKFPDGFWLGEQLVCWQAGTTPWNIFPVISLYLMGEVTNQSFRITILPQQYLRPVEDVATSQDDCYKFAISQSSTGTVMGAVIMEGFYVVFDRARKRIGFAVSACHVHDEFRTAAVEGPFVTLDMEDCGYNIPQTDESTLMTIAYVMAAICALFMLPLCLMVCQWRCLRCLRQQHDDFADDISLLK

Acetylcholinesterase [3] = target: T2, Acetylcholinesterase (Homo sapiens, UniProt P22303); experiment: Potency index, ratio of rhein-huprine hybrid IC50 to test compound IC50 for inhibition of human recombinant AChE using acetylthiocholine iodide as a substrate preincubated for 20 mins followed by substrate addition by spectrophotometric analysis
T2 sequence (P22303 whole entry): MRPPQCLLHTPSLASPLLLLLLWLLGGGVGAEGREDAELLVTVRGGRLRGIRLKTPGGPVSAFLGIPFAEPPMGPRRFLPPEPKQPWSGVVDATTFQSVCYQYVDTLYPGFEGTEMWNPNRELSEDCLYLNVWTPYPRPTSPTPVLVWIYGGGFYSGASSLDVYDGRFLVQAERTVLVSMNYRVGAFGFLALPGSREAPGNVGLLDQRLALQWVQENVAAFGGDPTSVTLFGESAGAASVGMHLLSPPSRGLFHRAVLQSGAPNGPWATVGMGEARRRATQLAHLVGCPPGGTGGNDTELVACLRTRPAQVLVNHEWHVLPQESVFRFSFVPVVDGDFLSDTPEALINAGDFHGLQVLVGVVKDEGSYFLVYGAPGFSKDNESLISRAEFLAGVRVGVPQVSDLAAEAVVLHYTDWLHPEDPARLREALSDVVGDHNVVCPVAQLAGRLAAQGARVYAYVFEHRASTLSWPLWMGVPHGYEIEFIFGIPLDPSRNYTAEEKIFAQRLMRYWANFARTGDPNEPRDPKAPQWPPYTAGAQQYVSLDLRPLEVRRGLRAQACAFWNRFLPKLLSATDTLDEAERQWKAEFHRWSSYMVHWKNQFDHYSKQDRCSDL

Acetylcholinesterase [4] = target: T2, Acetylcholinesterase; experiment: Potency index, ratio of donepezil IC50 to test compound IC50 for inhibition of human recombinant AChE using acetylthiocholine iodide as a substrate preincubated for 20 mins followed by substrate addition by spectrophotometric analysis
Cholinesterase [5] = target: T3, Cholinesterase (Homo sapiens, UniProt P06276); experiment: Potency index, ratio of rhein-huprine hybrid IC50 to test compound IC50 for inhibition of human serum BChE using butyrylthiocholine iodide as a substrate preincubated for 20 mins followed by substrate addition by spectrophotometric analysis; assay type: cell-free
T3 sequence (P06276 whole entry): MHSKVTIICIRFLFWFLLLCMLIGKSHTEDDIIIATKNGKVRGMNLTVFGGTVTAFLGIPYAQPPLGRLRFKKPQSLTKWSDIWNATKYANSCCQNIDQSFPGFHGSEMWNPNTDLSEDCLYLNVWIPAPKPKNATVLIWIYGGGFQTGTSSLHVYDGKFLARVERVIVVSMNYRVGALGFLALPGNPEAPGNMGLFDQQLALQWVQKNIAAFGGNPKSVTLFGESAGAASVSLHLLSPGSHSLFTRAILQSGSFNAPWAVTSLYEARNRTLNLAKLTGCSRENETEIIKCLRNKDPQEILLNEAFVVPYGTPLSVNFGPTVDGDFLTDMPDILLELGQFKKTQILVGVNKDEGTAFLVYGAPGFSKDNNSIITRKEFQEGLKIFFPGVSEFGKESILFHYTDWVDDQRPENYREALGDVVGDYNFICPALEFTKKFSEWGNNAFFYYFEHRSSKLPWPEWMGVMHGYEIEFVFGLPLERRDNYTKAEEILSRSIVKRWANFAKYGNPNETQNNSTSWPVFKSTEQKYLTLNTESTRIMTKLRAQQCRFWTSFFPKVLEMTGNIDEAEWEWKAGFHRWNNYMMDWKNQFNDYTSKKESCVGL

Cholinesterase [6] = target: T3, Cholinesterase; experiment: Potency index, ratio of huprine-Y IC50 to test compound IC50 for inhibition of human serum BChE using butyrylthiocholine iodide as a substrate preincubated for 20 mins followed by substrate addition by spectrophotometric analysis; assay type: cell-free
Cholinesterase [7] = target: T3, Cholinesterase; experiment: Potency index, ratio of donepezil IC50 to test compound IC50 for inhibition of human serum BChE using butyrylthiocholine iodide as a substrate preincubated for 20 mins followed by substrate addition by spectrophotometric analysis; assay type: cell-free
[8] = target: Amyloid-beta precursor protein (Homo sapiens) (UniProt P05067); experiment: Inhibition of amyloid beta (1 to 42) (unknown origin) aggregation in Escherichia coli BL21 (DE3) at 10 uM incubated overnight by thioflavin S based fluorescence analysis relative to control
Sequence of Amyloid-beta precursor protein (Homo sapiens) (P05067 whole entry): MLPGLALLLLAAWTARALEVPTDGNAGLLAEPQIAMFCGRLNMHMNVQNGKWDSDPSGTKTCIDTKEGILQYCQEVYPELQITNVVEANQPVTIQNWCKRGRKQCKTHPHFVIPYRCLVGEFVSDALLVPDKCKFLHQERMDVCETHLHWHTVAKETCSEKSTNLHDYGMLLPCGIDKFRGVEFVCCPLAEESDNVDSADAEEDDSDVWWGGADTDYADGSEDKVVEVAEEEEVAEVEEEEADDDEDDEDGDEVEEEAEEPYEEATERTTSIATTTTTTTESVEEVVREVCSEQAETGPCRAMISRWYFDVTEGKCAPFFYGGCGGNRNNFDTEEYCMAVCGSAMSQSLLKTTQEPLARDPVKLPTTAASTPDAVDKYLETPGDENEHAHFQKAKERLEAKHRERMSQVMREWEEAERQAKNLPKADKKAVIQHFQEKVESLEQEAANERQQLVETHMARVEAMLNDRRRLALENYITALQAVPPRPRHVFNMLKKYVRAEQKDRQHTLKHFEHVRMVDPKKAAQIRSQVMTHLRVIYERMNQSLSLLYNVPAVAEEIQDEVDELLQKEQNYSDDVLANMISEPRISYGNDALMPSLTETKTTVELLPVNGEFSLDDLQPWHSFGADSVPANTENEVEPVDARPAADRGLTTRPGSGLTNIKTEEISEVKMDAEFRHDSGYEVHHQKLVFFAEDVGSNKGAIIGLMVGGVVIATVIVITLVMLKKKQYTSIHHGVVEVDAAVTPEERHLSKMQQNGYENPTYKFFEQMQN

[9] = target: Microtubule-associated protein tau (Homo sapiens) (UniProt P10636); experiment: Inhibition of tau aggregation (unknown origin) in Escherichia coli BL21 (DE3) at 10 uM incubated overnight by thioflavin S based fluorescence analysis relative to control
Sequence of Microtubule-associated protein tau (Homo sapiens) (P10636 whole entry): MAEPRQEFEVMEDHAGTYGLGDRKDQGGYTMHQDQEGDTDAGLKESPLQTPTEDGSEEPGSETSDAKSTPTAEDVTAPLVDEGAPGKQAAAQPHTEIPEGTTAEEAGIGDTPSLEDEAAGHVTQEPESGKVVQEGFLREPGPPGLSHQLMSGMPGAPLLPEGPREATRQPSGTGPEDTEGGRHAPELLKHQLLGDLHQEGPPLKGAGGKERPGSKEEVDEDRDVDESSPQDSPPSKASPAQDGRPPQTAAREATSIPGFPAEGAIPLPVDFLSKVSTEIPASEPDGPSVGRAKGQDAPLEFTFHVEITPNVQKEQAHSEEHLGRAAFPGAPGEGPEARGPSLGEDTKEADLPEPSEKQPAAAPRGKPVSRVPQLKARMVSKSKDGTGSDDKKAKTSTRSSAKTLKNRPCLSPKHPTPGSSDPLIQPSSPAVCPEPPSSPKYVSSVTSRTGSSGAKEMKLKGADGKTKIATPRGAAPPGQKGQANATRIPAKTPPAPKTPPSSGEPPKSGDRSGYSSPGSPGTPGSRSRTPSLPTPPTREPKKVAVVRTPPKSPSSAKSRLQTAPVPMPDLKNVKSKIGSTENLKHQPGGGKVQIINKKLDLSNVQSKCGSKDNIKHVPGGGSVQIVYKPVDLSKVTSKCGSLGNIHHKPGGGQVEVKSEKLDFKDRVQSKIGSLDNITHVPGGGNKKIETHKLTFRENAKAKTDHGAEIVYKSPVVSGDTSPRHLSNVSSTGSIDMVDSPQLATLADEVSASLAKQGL

[10] = Antioxidant activity assessed as free radical scavenging activity at 500 uM incubated for 30 mins under dark condition by DPPH assay; assay type: functional
[11] = Neurotoxicity in mouse HT-22 cells assessed as decrease in cell viability at up to 25 uM by MTT assay; assay type: cell-based
[12] = Acute toxicity in zebra fish embryos assessed as lethality at 12.5 to 100 uM measured every 24 hrs for 72 hrs relative to control; design: species or system Danio rerio; conditions: zebrafish, dose 12.5-100 µM, read-out: Activity
[13] = Permeability of the compound in PBS/EtOH by PAMPA-BBB assay; assay type: ADME; conditions: read-out: permeability
[14] = Kinetic solubility of the compound in DMSO/PBS buffer measured after 2 hrs by nephalometric analysis; assay type: physicochemical; conditions: for solubility kinetic at 2 h: DMSO/PBS buffer, read-out: Kinetic_solubility
Acetylcholinesterase [15] = target: T2, Acetylcholinesterase
Description: Inhibition of human recombinant AChE using acetylthiocholine iodide as a substrate preincubated for 20 mins followed by substrate addition by spectrophotometric analysis

Cholinesterase [16] = target: T3, Cholinesterase
Description: Inhibition of human serum BChE using butyrylthiocholine iodide as a substrate preincubated for 20 mins followed by substrate addition by spectrophotometric analysis

[17] = Metal chelating activity assessed as compound-Fe2+ complex formation at 3 mM in presence of FeCl2 by UV-Vis spectra analysis
[18] = Metal chelating activity assessed as compound-Cu2+ complex formation at ratio of 5:1 by pyrocatechol violet assay; conditions: dose 3.0 mM
[19] = Metal chelating activity assessed as compound-Cu2+ complex formation at ratio of 2:1 by pyrocatechol violet assay; conditions: dose 3.0 mM
[20] = Metal chelating activity assessed as compound-Cu2+ complex formation at ratio of 1:1 by pyrocatechol violet assay; conditions: dose 3.0 mM
[21] = Metal chelating activity assessed as compound-Cu2+ complex formation at ratio of 0.5:1 by pyrocatechol violet assay; conditions: dose 3.0 mM
[22] = Metal chelating activity assessed as compound-Zn2+ complex formation at 3 mM in presence of ZnCl2 by UV-Vis spectra analysis
[23] = Metal chelating activity assessed as compound-Cu2+ complex formation at 3 mM in presence of CuSO4 by UV-Vis spectra analysis
HT-22 [24] = experiment: Neuroprotective activity against glutamate induced neuronal death in mouse HT-22 cells assessed as increase in cell viability at 1 to 25 uM by MTT assay; assay type: functional, cell-based; conditions: dose 1-25 µM
Beta-secretase 1 [25] = target: T1, Beta-secretase 1; experiment: Inhibition of human recombinant BACE-1 expressed in Escherichia coli using panvera peptide as a substrate incubated for 1 hr by fluorescence analysis
[26] = Neurotoxicity in mouse HT-22 cells assessed as decrease in cell viability at up to 10 uM by MTT assay; assay type: cell-based
[27] = Antioxidant activity assessed as free radical scavenging activity incubated for 30 mins under dark condition by DPPH assay; assay type: functional
HT-22 [28] = experiment: Neuroprotective activity against glutamate induced neuronal death in mouse HT-22 cells assessed as increase in cell viability by MTT assay; assay type: functional, cell-based; conditions: dose 1-25 µM
HT-22 [29] = experiment: Neuroprotective activity against glutamate induced neuronal death in mouse HT-22 cells assessed as increase in cell viability at 25 uM by MTT assay; assay type: functional, cell-based

CC1=CC2Cc3nc4cc(Cl)ccc4c(N)c3C(C1)C2 (racemic) [HUPRINE Y]
LC50 at 72 h [1]: 20.9 µM

COc1cc(CNC(=O)CCCCCCCCNc2c3c(nc4cc(Cl)ccc24)CC2C=C(C)CC3C2)ccn1 (configuration not stated)
inhibition (Beta-secretase 1 [2]): 26.5% | Ratio IC50 (Acetylcholinesterase [3]): < 9 | Ratio IC50 (Acetylcholinesterase [4]): < 65 | Ratio IC50 (Cholinesterase [5]): 7 | Ratio IC50 (Cholinesterase [6]): 2 | Ratio IC50 (Cholinesterase [7]): 79 | inhibition [8]: 29.4% | inhibition [9]: 41.6% | Activity [10]: inactive | Activity [11]: Non-Toxic | LC50 at 72 h [1]: 7.1 µM | mortality at 24 h, 100 µM [12]: 75% | Papp [13]: 8.2 ×10⁻⁶ cm/s | solubility kinetic at 2 h [14]: 5.1 µg/mL (≈ 9.09 µM) | IC50 (Acetylcholinesterase [15]): 0.00125 µM | IC50 (Cholinesterase [16]): 0.0885 µM

CC1=CC2Cc3nc4cc(Cl)ccc4c(NCCCCCCCCCNC(=O)c4cc(O)c5c(c4)C(=O)c4cccc(O)c4C5=O)c3C(C1)C2 (configuration not stated)
inhibition [8]: 47.9% | inhibition [9]: 29.6% | Kinetic_solubility ([14]; 2 h): 19.7 uM and 14.8 ug ml-1

O=C(O)CN(CCN(CC(=O)O)CC(=O)O)CC(=O)O
Activity [17]: Active | Activity [18]: Active | Activity [19]: Active | Activity [20]: Active | Activity [21]: Active

CC1=CC2Cc3nc4cc(Cl)ccc4c(NCCCCCCCCCNC(=O)c4ccc[nH]c4=O)c3C(C1)C2 (configuration not stated)
Activity [22]: Active | inhibition (Beta-secretase 1 [2]): 6.92% | Ratio IC50 (Acetylcholinesterase [3]): < 9 | Ratio IC50 (Acetylcholinesterase [4]): < 65 | Ratio IC50 (Cholinesterase [5]): 7 | Ratio IC50 (Cholinesterase [6]): 2 | Ratio IC50 (Cholinesterase [7]): 79 | inhibition [8]: 42.3% | inhibition [9]: 48.5% | Activity [23]: Active | Activity [10]: inactive | Activity (HT-22 [24]): inactive | Activity [11]: Non-Toxic | LC50 at 72 h [1]: 57.8 µM | Papp [13]: 6.7 ×10⁻⁶ cm/s | solubility kinetic at 2 h [14]: 7.7 µg/mL (≈ 14.1 µM) | IC50 (Acetylcholinesterase [15]): 0.00182 µM | IC50 (Cholinesterase [16]): 0.0319 µM

CC1=CC2Cc3nc4cc(Cl)ccc4c(NCCCCCCCCCNS(=O)(=O)c4cn[nH]c4)c3C(C1)C2 (configuration not stated)
Activity [22]: Active | Activity [17]: Active | IC50 (Beta-secretase 1 [25]): 10.8 µM | Ratio IC50 (Acetylcholinesterase [3]): < 9 | Ratio IC50 (Acetylcholinesterase [4]): < 65 | Ratio IC50 (Cholinesterase [5]): 7 | Ratio IC50 (Cholinesterase [6]): 2 | Ratio IC50 (Cholinesterase [7]): 79 | inhibition [8]: 35.3% | inhibition [9]: 55.5% | Activity [23]: Active | Activity [18]: Active | Activity [19]: Active | Activity [20]: Active | Activity [21]: Active | Activity [10]: inactive | Activity (HT-22 [24]): inactive | Activity [26]: Toxic | LC50 at 72 h [1]: > 100 µM | Papp [13]: 6.3 ×10⁻⁶ cm/s | solubility kinetic at 2 h [14]: 5.7 µg/mL (≈ 10.2 µM) | IC50 (Acetylcholinesterase [15]): 0.0024 µM | IC50 (Cholinesterase [16]): 0.0503 µM

O=C1O[C@H]([C@@H](O)CO)C(O)=C1O [ASCORBIC ACID]
EC50 [27]: 11.8 µM

CC1=CC2Cc3nc4cc(Cl)ccc4c(NCCCCCCCCC(=O)NCc4cc[nH]c(=O)c4)c3C(C1)C2 (configuration not stated)
inhibition (Beta-secretase 1 [2]): inactive | Ratio IC50 (Acetylcholinesterase [3]): < 9 | Ratio IC50 (Acetylcholinesterase [4]): < 65 | Ratio IC50 (Cholinesterase [5]): 7 | Ratio IC50 (Cholinesterase [6]): 2 | Ratio IC50 (Cholinesterase [7]): 79 | inhibition [8]: 19.9% | inhibition [9]: 20.9% | EC50 [27]: 90.6 µM | Activity [11]: Non-Toxic | LC50 at 72 h [1]: > 100 µM | Papp [13]: 4.4 ×10⁻⁶ cm/s | solubility kinetic at 2 h [14]: 13.8 µg/mL (≈ 25.2 µM) | IC50 (Acetylcholinesterase [15]): 0.00063 µM | IC50 (Cholinesterase [16]): 0.0758 µM

CC1=CC2Cc3nc4cc(Cl)ccc4c(NCCCCCCCCC(=O)Nc4cn[nH]c4)c3C(C1)C2 (configuration not stated)
Activity [22]: Active | Activity [17]: Active | inhibition (Beta-secretase 1 [2]): 16.2% | Ratio IC50 (Acetylcholinesterase [3]): < 9 | Ratio IC50 (Acetylcholinesterase [4]): < 65 | Ratio IC50 (Cholinesterase [5]): 7 | Ratio IC50 (Cholinesterase [6]): 2 | Ratio IC50 (Cholinesterase [7]): 79 | inhibition [8]: 32.6% | inhibition [9]: 45.3% | Activity [23]: Active | Activity [18]: Active | Activity [19]: Active | Activity [20]: Active | Activity [21]: Active | EC50 [27]: 19.6 µM | Activity (HT-22 [28]): Dose-Dependent Effect | Activity [11]: Non-Toxic | LC50 at 72 h [1]: 69.1 µM | Papp [13]: 5.9 ×10⁻⁶ cm/s | solubility kinetic at 2 h [14]: 9.3 µg/mL (≈ 18.4 µM) | IC50 (Acetylcholinesterase [15]): 0.00239 µM | IC50 (Cholinesterase [16]): 0.064 µM

CC1=CC2Cc3nc4cc(Cl)ccc4c(NCCCCCCCCC(=O)N4CCNC(=O)C4)c3C(C1)C2 (configuration not stated)
inhibition (Beta-secretase 1 [2]): inactive | Ratio IC50 (Acetylcholinesterase [3]): < 9 | Ratio IC50 (Acetylcholinesterase [4]): < 65 | Ratio IC50 (Cholinesterase [5]): 7 | Ratio IC50 (Cholinesterase [6]): 2 | Ratio IC50 (Cholinesterase [7]): 79 | inhibition [8]: 9.7% | inhibition [9]: 15% | Activity [10]: inactive | Activity [11]: Non-Toxic | LC50 at 72 h [1]: > 100 µM | Papp [13]: 4.9 ×10⁻⁶ cm/s | solubility kinetic at 2 h [14]: 43.3 µg/mL (≈ 82.8 µM) | IC50 (Acetylcholinesterase [15]): 0.00041 µM | IC50 (Cholinesterase [16]): 0.0748 µM

CC[N+](C)(CC)CCC[n+]1c(-c2ccccc2)c2cc(N)ccc2c2ccc(N)cc21
inhibition [8]: 39.2%

O=c1c(O)c(-c2ccc(O)c(O)c2)oc2cc(O)cc(O)c12
Activity (HT-22 [29]): Active
